# According to patent US20250041451A1, “GENE THERAPY FOR HEARING LOSS” (Perceive Biotherapeutics, Inc., priority 2021, published 2025):
# Like-named read-outs stand apart in the source and are kept apart here.
# How the values were obtained:
# [1] = tested on: cochlear hair cells (mouse cochlear explants); assay type: cell-based; settings: for number of viable hair cells: untreated explants 17-52
# Description: In some embodiments, an in vitro method is employed. An illustrative assay uses an aminoglycoside-induced model (using gentamycin) of hair cell death using cochlear explants. In brief, the cochleae are collected from test animal, e.g., mice. All cochleae are combined in the same dissection maintenance bath and plated as an individual sample. The following morning, high magnification digital images of cochlea are taken and cochlear explant is assigned to groups. A desired number of explants will be used for further gentamicin treatment. Test article and positive control article are dosed ˜6 hours either prior, together with, or following to gentamicin for a duration of up to 3 days. If the culture medium is replaced (e.g. when gentamicin is added/removed), the test or positive control article will be re-administered. The cochlea are cultured and observed for health and survival. At the end of the culture cochlear explants are bathed with buffer and processed for cochleogram. Following the fixation, all the cochlear explants undergo immunofluorescent staining with anti-Myosin VIIa and Phalloidin in order to specifically label the hair cells. The explants are then mounted on microscope slides, and imaged utilizing a confocal microscope using the same laser power settings for all samples. Cochlear fragment images are then divided into 20% fragments from the apex to the base. MyosinVIIa light intensity is quantified in each fragment and compared among groups. Image analysis is performed using an imaging platform, e.g., a Fiji image analysis platform. Explants are scanned using confocal microscope with filters for 488 nm and 594 nm wave lengths. Scanning is performed using the same laser power through the entire imaging for proper light intensity calculation. For analysis, cochlea can be divided in fragment of X %. Intensity of light coming from MyoVii is quantified in each fragment and compared among groups.
# Mouse cochlear explants were treated with “ORI-069” a small molecule inhibitor of DLK and LZK. ORI-069 is 2-Amino-N-[(2S)-butan-2-yl]-7-(1-{2-methyl-1-[6-(trifluoromethyl)pyridin-3-yl]propyl}-1H-pyrazol-4-yl)[1,2,4]triazolo[1,5-ca]pyridine-5-carboxamide (stereoisomers 2, eutomer).
# Animals were euthanized in accordance with American Veterinary Medical Association guidelines and cochleae were collected. All cochleae from each group were combined in the same dissection maintenance bath and plated as a group.
# At the end of the culture period, the cochlear explants were bathed with 10% neutral buffered formalin (NBF) and processed for hair cell counting. Digital images of the cultures were collected before fixation.
# Following fixation, all cochlear explants underwent immunofluorescent staining with anti-Myosin VIIa to specifically label the hair cells. The explants were mounted on microscope slides, then imaged utilizing a confocal microscope: 20× for full scan and with 63× oil, zoom 2.25, 4 zones along the length of the cochlea: one from 50-200 μm for each extremity, one in the 33% tile and one in the 66% tile. Detailed scanning was performed using 488 nm and 594 nm filters.
# A blind counting of all hair cells (OHC & IHC undiscriminated) was performed on 4 to 6 zones of each explant (fragments 1, 2, 3, 4, 5 and 6) through the entire z stack generated. Counting and fragment length measure was performed by 3 different individuals. Only cells without nucleus aberration, with good staining, integrity, and well delimited cell outline were considered for counting. Cell density was determined by reporting each counting to the length of the fragment. Image analysis was performed using Fiji image analysis platform, a distribution of ImageJ.
# HC survival and hearing = settings: literature (Ylikoski 2002; Pirvola 2000); cited from earlier work
compound,measurement,setting,value
"CC[C@H](C)NC(=O)c1cc(-c2cnn(C(c3ccc(C(F)(F)F)nc3)C(C)C)c2)cc2nc(N)nn12 (stereo partly drawn) [ORI-069, 2-Amino-N-[(2S)-butan-2-yl]-7-(1-{2-methyl-1-[6-(trifluoromethyl)pyridin-3-yl]propyl}-1H-pyrazol-4-yl)[1,2,4]triazolo[1,5-ca]pyridine-5-carboxamide]",number of hair cells compared to gentamycin treated explants,[1]; 5 μM test article + gentamycin 50 μM,higher compared to gentamycin treated explants
same,number of viable hair cells,"[1]; gentamycin 50 μM (16 h) treated explants co-administered with 0.5 μM test article, 3 days",0-20 hair cells/fragment
same,number of viable hair cells,"[1]; gentamycin 50 μM (16 h) treated explants co-administered with 5 μM test article, 3 days",0-32 hair cells/fragment
same,"protection of explant cultures (3-D Z-stack reconstructions, FIG. 2)","[1]; gentamycin 50 μM treated explants, concentration not given",protected explant cultures
gentamycin,number of viable hair cells,"[1]; gentamycin 50 μM alone, single 16 h",0-14 hair cells/fragment
CCSCc1ccc2c(c1)c1c3c(c4c5cc(CSCC)ccc5n5c4c1n2[C@H]1C[C@](O)(C(=O)OC)[C@]5(C)O1)CNC3=O [CEP-1347],level of hair cells compared to gentamycin treated explants,[1]; 0.5 μM test article + gentamycin 50 μM,same low level of hair cells as the gentamycin treated explants
same,protective effect,"[1]; positive control, 0.5 μM + gentamycin 50 μM",did not show a protective effect
same,HC survival and hearing in multiple animal models,HC survival and hearing,increase HC survival and preserve hearing
